Reference: patent US10100050B2 (CHIESI FARMACEUTICI S.P.A., priority 2015, dated 2018)

Key:
BEAS-2B cells = test: TNFα-stimulated BEAS-2B IL-8 release assay; assay type: cell-based; conditions: Homo sapiens, IC50 classes, TNF-α 10 ng/ml, 18 h, read-out: TNFα-stimulated BEAS-2B IL-8 release inhibition
Method: TNFα-Stimulated BEAS-2B IL-8 Release Assay
Human bronchial epithelial cell line BEAS-2B was purchased from Sigma (St. Louis, Mo.). BEAS-2B cells were cultured in Bronchial Epithelial cell Growth Medium (BEGM), prepared by supplementing Bronchial Epithelial Basal Medium with SingleQuotes™ (Lonza, Switzerland), which contains retinoic acid, epidermal growth factor, epinephrine, transferrin, triiodothyronin, insulin, hydrocortisone, antimicrobial agents, and bovine pituitary extract. In addition, BEGM medium was supplemented with 2 mM glutamine, 100 U penicillin and 100 μg/ml streptomycin (Life Technologies), in an atmosphere of 95% air and 5% CO2 at 37° C.
BEAS-2B were seeded in 48-well plates at the density of 3×10^4 cells per well, grown to approximately 80-90% confluence. Cells were pre-incubated with p38 inhibitors for 1 hour and then stimulated with TNF-α (10 ng/ml) for 18 h at 37° C. with 5% CO2. Subsequently, supernatants were collected and used for measuring IL-8 levels using a paired antibody quantitative ELISA kit purchased from Life Technologies (detection limit: […]). All the treatments were performed at least in quadruplicate.
A concentration-response curve to each test compound was performed and the effect of compound in each experiment was expressed as a percentage inhibition of the control IL-8 release. Compound potency (IC50) was calculated by the analysis of the sigmoidal dose-response curve (variable slope) elaborated by Graph Pad PRISM4 program.

p38alpha = target: T1, p38alpha (Homo sapiens, UniProt Q16539); test: P38alpha enzyme inhibition assay (Alphascreen kinase activity assay); assay type: biochemical; conditions: IC50 classes; 2 hours preincubation at 25° C., 250 μM ATP; read-out: p38α inhibition
T1 construct: purchased Invitrogen PV3304
Method: P38alpha Enzyme Inhibition Assay
The inhibitory activity of compounds was determined using an Alphascreen® (Perkin Elmer) based kinase activity assay. Kinase reactions consisted of 25 mM HEPES pH 7.5, 10 mM MgCl2, 100 μM Na3VO4, 2 mM DTT, 0.05 mg/ml Tween […] (Invitrogen, PV3304), 1% DMSO and 0.3 μg/ml ATF-2 fusion protein (New England Biolabs, 9224). Compounds were incubated under these conditions for 2 hours, at 25° C., prior to the initiation of the kinase activity by the addition of the 250 μM ATP. Reaction volumes were 20 uL. After 1 hr at 25° C. reactions were stopped by the adding 10 uL of 25 mM HEPES pH 7.5 containing 62.5 mM EDTA, 0.05% Triton X-100, 10% BSA and 0.83 ng/uL anti-phospho-ATF2 antibody (Abcam, ab28812). Detection was performed by measuring luminescence following the addition of Alphascreen Donor beads (Perkin Elmer 6765300) and Protein A Alphascreen Acceptor beads (Perkin Elmer 6760137), both at a final concentration of 20 ug/ml. IC50 values were determined from concentration-response curves.

[1] = tested on: Peripheral Blood Mononuclear Cells (PBMCs); test: LPS-stimulated PBMC TNFα release assay; assay type: cell-based; conditions: IC50 classes; human PBMC, LPS 10 ng/ml, 18 h; read-out: LPS-stimulated PBMC TNFα release inhibition
Method: 1-10 nM ‘+’; • <1 nM ‘++’ LPS-Stimulated PBMC TNFα Release Assay
Peripheral Blood Mononuclear Cells (PBMCs) were isolated from healthy human volunteer blood using a standard density gradient centrifugation technique. Citrated blood was placed onto Histopaque™ and centrifuged. The PBMCs were removed from the density gradient interface and washed in phosphate buffered saline (PBS). The PBMCs were suspended in RPMI 1640 medium (without serum), dispensed into a 96-well plate and incubated at 37° C. for 3 h in a humidified incubator. After incubation, the medium was replaced (with medium containing 1% foetal bovine serum) and the plate incubated at 37° C., for 1 h, in the presence of test compound or the appropriate vehicle. LPS (10 ng/ml), or an appropriate vehicle control, was then added to the cells and the plate returned to the incubator for 18 h. Cell-free supernatants were removed and assayed for TNFα levels using MSD plates on the Sector Imager 6000 (MesoScale).
A dose response curve to each test compound was performed and the effect of compound in each experiment was expressed as a percentage inhibition of the control TNFα release. Dose response curves were plotted and compound potency (IC50) was determined. Compounds were tested in at least three separate experiments.

T1 sequence (Q16539 whole entry): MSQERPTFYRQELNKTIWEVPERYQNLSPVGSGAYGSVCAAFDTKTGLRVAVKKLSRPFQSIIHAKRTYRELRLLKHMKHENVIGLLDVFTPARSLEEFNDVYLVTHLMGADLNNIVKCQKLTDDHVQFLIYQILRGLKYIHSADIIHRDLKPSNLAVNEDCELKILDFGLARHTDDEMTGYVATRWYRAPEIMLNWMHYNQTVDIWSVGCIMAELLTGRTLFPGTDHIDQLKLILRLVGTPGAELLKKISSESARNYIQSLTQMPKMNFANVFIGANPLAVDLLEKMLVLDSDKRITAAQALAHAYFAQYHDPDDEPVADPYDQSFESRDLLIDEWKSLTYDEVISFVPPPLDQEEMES

Row | IC50 (p38alpha) [nM] | Structure (SMILES) | IC50 (BEAS-2B cells) [nM] | IC50 [1] [nM]
1 | < 1 | CN1CCC[C@]1(C)c1nnc2ccc(O[C@@H]3CC[C@H](NC(=O)Nc4cc(NS(C)(=O)=O)cc(C(C)(C)C)c4)c4ccccc43)cn12 [Example 20, N-[3-tert-Butyl-5-(3-{(1S,4R)-4-[3((R)-1,2-dimethyl-pyrrolidin-2-yl)-[1,2,4]triazolo[4,3-a]pyridin-6-yloxy]-1,2,3,4-tetrahydro-naphthalen-1-yl}-ureido)-phenyl]-methanesulfonamide] | < 0.3 | < 1
2 | < 1 | CN1CCC[C@@]1(C)c1nnc2ccc(O[C@@H]3CC[C@H](NC(=O)Nc4cc(C(=O)NCCO)cc(C(C)(C)C)c4)c4ccccc43)cn12 [Example 51, 3-tert-Butyl-5-(3-{(1S,4R)-4-[3-((S)-1,2-dimethyl-pyrrolidin-2-yl)-[1,2,4]triazolo[4,3-a]pyridin-6-yloxy]-1,2,3,4-tetrahydro-naphthalen-1-yl}-ureido)-N-(2-hydroxy-ethyl)-benzamide] | 0.3 to 1 | < 1
3 | < 1 | CNC(=O)c1cc(NC(=O)N[C@H]2CC[C@@H](Oc3ccc4nnc([C@]5(C)CCCN5C)n4c3)c3ccccc32)cc(C(C)(C)C)c1 [Example 55, 3-tert-Butyl-5-(3-{(1S,4R)-4-[3-((S)-1,2-dimethyl-pyrrolidin-2-yl)-[1,2,4]triazolo[4,3-a]pyridin-6-yloxy]-1,2,3,4-tetrahydro-naphthalen-1-yl}-ureido)-N-methyl-benzamide] | < 0.3 | < 1
4 | < 1 | CN1CCC[C@@]1(CO)c1nnc2ccc(O[C@@H]3CC[C@H](NC(=O)Nc4cc(NS(C)(=O)=O)cc(C(C)(C)C)c4)c4ccccc43)cn12 [Example 33] | 0.3 to 1 | < 1
5 | < 1 | CN1CCC[C@@]1(C)c1nnc2ccc(O[C@@H]3CC[C@H](NC(=O)Nc4cc(COCCN5CCCCC5)cc(C(C)(C)C)c4)c4ccccc43)cn12 [Example 71, 1-[3-tert-Butyl-5-(2-piperidin-1-yl-ethoxymethyl)-phenyl]-3-{(1S,4R)-4-[3-((S)-1,2-dimethyl-pyrrolidin-2-yl)-[1,2,4]triazolo[4,3-a]pyridin-6-yloxy]-1,2,3,4-tetrahydro-naphthalen-1-yl}-urea] | 0.3 to 1 | 1 to 5
6 | < 1 | CNS(=O)(=O)c1cc(NC(=O)N[C@H]2CC[C@@H](Oc3ccc4nnc([C@@H]5CCCN5C)n4c3)c3ccccc32)cc(C(C)(C)C)c1 [Example 38, 3-tert-Butyl-N-methyl-5-(3-{(1S,4R)-4-[3-((S)-1-methyl-pyrrolidin-2-yl)-[1,2,4]triazolo[4,3-a]pyridin-6-yloxy]-1,2,3,4-tetrahydro-naphthalen-1-yl}-ureido)-benzenesulfonamide] | 0.3 to 1 | 1 to 5
7 | 1 to 10 | COC(=O)Nc1cc(NC(=O)N[C@H]2CC[C@@H](Oc3ccc4nnc([C@]5(C)CCCN5C)n4c3)c3ccccc32)cc(C(C)(C)C)c1 [Example 46, [3-tert-Butyl-5-(3-{(1S,4R)-4-[3-((S)-1,2-dimethyl-pyrrolidin-2-yl)-[1,2,4]triazolo[4,3-a]pyridin-6-yloxy]-1,2,3,4-tetrahydro-naphthalen-1-yl}-ureido)-phenyl]-carbamic acid methyl ester] | < 0.3 | < 1
8 | < 1 | CN1CCC[C@@]1(C)c1nnc2ccc(O[C@@H]3CC[C@H](NC(=O)Nc4cc(CNS(C)(=O)=O)cc(C(C)(C)C)c4)c4ccccc43)cn12 [Example 45, N-[3-tert-Butyl-5-(3-{(1S,4R)-4-[3-((S)-1,2-dimethyl-pyrrolidin-2-yl)-[1,2,4]triazolo[4,3-a]pyridin-6-yloxy]-1,2,3,4-tetrahydro-naphthalen-1-yl}-ureido)-benzyl]-methanesulfonamide] | < 0.3 | < 1
9 | < 1 | CN(C)CCOCc1cc(NC(=O)N[C@H]2CC[C@@H](Oc3ccc4nnc([C@]5(C)CCCN5C)n4c3)c3ccccc32)cc(C(C)(C)C)c1 [Example 69] | < 0.3 | > 5
